Data reported in the supplement of paper PMC10307832.

Legend:
Experiment in all cases: relative viability (nuclei count vs DMSO), 5 days (fraction); higher = more cells survive
[1] = compound: CC1=CC=C(C=C1)C(=O)CN2C3=C(CCCC3)SC2=N [Pifithrin_alpha] + CC(=O)c1c(C)c2cnc(Nc3ccc(N4CCNCC4)cn3)nc2n(C2CCCC2)c1=O [Palbociclib] (partner 0.5 µM)
Procedure, shortened: (§1)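 For relative viability, nuclei counts in treated wells were divided by those in vehicle wells. Lung cancer cell lines had been pin-tool dosed in 1536-well plates the day after seeding and cultured for 5 days, then fixed and stained in one step (final 0.05% Triton X-100, 1% formaldehyde, 1 ug/ml Hoechst) and imaged at 4×. Doses were one drug alone or a fixed anchor-drug dose plus five library-drug doses (not always all listed) in √10 steps, and values are duplicate-plate medians.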

Axitinib + Phenformin = compound: CNC(=O)c1ccccc1Sc1ccc2c(/C=C/c3ccccn3)n[nH]c2c1 [Axitinib] + N=C(N)NC(=N)NCCc1ccccc1 [Phenformin] (partner 250 µM)
Procedure, shortened: as §1

Axitinib + Olaparib = compound: CNC(=O)c1ccccc1Sc1ccc2c(/C=C/c3ccccn3)n[nH]c2c1 [Axitinib] + O=C(c1cc(Cc2n[nH]c(=O)c3ccccc23)ccc1F)N1CCN(C(=O)C2CC2)CC1 [Olaparib] (partner 8 µM)
Procedure, shortened: as §1

Bemcentinib + Phenformin = compound: Nc1nc(Nc2ccc3c(c2)CC[C@@H](N2CCCC2)CC3)nn1-c1cc2c(nn1)-c1ccccc1CCC2 [Bemcentinib] + N=C(N)NC(=N)NCCc1ccccc1 [Phenformin] (partner 250 µM)
Procedure, shortened: as §1

Row | Cell Line | relative viability ([1]; first compound 1 µM) | relative viability ([1]; first compound 3.162 µM) | relative viability ([1]; first compound 10 µM) | relative viability ([1]; first compound 31.62 µM) | relative viability ([1]; first compound 100 µM) | relative viability (Axitinib + Phenformin; first compound 0.005 µM) | relative viability (Axitinib + Phenformin; first compound 0.01581 µM) | relative viability (Axitinib + Phenformin; first compound 0.05 µM) | relative viability (Axitinib + Phenformin; first compound 0.1581 µM) | relative viability (Axitinib + Phenformin; first compound 0.5 µM) | relative viability (Axitinib + Olaparib; first compound 0.005 µM) | relative viability (Axitinib + Olaparib; first compound 0.01581 µM) | relative viability (Axitinib + Olaparib; first compound 0.05 µM) | relative viability (Axitinib + Olaparib; first compound 0.1581 µM) | relative viability (Axitinib + Olaparib; first compound 0.5 µM) | relative viability (Bemcentinib + Phenformin; first compound 0.1265 µM) | relative viability (Bemcentinib + Phenformin; first compound 0.4 µM) | relative viability (Bemcentinib + Phenformin; first compound 1.265 µM) | relative viability (Bemcentinib + Phenformin; first compound 4 µM) | relative viability (Bemcentinib + Phenformin; first compound 0.04 µM)
1 | NCI-H3122 | 0.175 | 0.211 | 0.193 | 0.146 | 0.195 | 0.347 | 0.369 | 0.397 | 0.379 | 0.415 | 0.571 | 0.629 | 0.59 | 0.598 | 0.652 | 0.412 | 0.366 | 0.358 | 0.381 | –
2 | SK-MES-1 | 0.294 | 0.286 | 0.267 | 0.266 | 0.267 | 0.65 | 0.653 | 0.654 | 0.631 | 0.738 | 0.775 | 0.829 | 0.711 | 0.833 | 1.02 | 0.691 | 0.652 | 0.758 | 0.667 | 0.687
3 | NCI-H1650 | 0.285 | 0.321 | 0.389 | 0.307 | 0.282 | 0.488 | 0.309 | 0.553 | 0.352 | 0.536 | 0.876 | 0.712 | 0.797 | 0.91 | 0.89 | 0.477 | 0.583 | 0.43 | 0.394 | 0.368
4 | NCI-H2170 | 0.369 | 0.396 | 0.35 | 0.312 | 0.452 | 0.435 | 0.412 | 0.468 | 0.415 | 0.5 | 0.693 | 0.616 | 0.569 | 0.595 | 0.671 | 0.429 | 0.456 | 0.389 | 0.435 | 0.402
5 | NCI-H1648 | 0.221 | 0.313 | 0.305 | 0.337 | 0.296 | – | – | – | – | – | 0.616 | 0.975 | 0.554 | 0.979 | 0.958 | – | – | – | – | –
6 | Calu-6 | – | – | – | – | – | – | – | – | – | – | 0.554 | 0.605 | 0.607 | 0.555 | 0.681 | – | – | – | – | –
7 | NCI-H1563 | – | – | – | – | – | 0.778 | 0.654 | 0.625 | 0.616 | 0.667 | – | – | – | – | – | 0.742 | 0.671 | 0.671 | 0.618 | 0.671
8 | EBC-1 | – | – | – | – | – | – | – | – | – | – | 0.788 | 0.648 | 0.768 | 0.69 | 0.769 | – | – | – | – | –
9 | NCI-H1703 | – | – | – | – | – | – | – | – | – | – | 0.392 | 0.225 | 0.243 | 0.216 | 0.201 | – | – | – | – | –
10 | NCI-H1299 | – | – | – | – | – | – | – | – | – | – | 0.983 | 0.944 | 0.976 | 0.983 | 0.975 | – | – | – | – | –
11 | A549 | – | – | – | – | – | 0.204 | 0.198 | 0.217 | 0.149 | 0.216 | 0.471 | 0.36 | 0.373 | 0.327 | 0.412 | 0.124 | 0.17 | 0.121 | 0.147 | 0.126
12 | NCI-H596 | – | – | – | – | – | 0.735 | 0.784 | 0.841 | 0.746 | 0.638 | 0.739 | 0.663 | 0.739 | 0.719 | 0.705 | 0.733 | 0.783 | 0.713 | 0.772 | 0.698
